Laboratory results: ChEMBL document CHEMBL3508693 (2016)

Key:
CYP2C9 [1] = molecular target: T1, CYP2C9 (Homo sapiens, UniProt P11712); assay: Inhibitory activity of 200 uM SPP100 on 201 Pmoles of cDNA-derived CYP2C9 enzyme in microsome prepared from human lymphoblastoid cell line; format: ADME, microsomes; parameters: conc 200 uM, interact cpd conc 6 uM; conditions: probe diclofenac
[2] = AUC of SPP100 following single oral dose of [14C] aliskiren hemifumarate at 3 mg.Kg-1 level in marmoset; format: ADME, organism-based, Callithrix jacchus, Plasma; conditions: in vivo
[3] = Oral clearance of SPP100 following single oral dose of SPP100 150 mg capsule studied in healthy human; format: ADME, organism-based; conditions: plasma
CYP2A6 = molecular target: T2, CYP2A6 (Homo sapiens, UniProt P11509); assay: Inhibitory activity of 200 uM SPP100 on 37 Pmoles of cDNA-derived CYP2A6 enzyme in microsome prepared from human lymphoblastoid cell line; format: ADME, microsomes; parameters: conc 200 uM, interact cpd conc 3 uM; conditions: probe coumarine
T2 sequence (P11509 whole entry): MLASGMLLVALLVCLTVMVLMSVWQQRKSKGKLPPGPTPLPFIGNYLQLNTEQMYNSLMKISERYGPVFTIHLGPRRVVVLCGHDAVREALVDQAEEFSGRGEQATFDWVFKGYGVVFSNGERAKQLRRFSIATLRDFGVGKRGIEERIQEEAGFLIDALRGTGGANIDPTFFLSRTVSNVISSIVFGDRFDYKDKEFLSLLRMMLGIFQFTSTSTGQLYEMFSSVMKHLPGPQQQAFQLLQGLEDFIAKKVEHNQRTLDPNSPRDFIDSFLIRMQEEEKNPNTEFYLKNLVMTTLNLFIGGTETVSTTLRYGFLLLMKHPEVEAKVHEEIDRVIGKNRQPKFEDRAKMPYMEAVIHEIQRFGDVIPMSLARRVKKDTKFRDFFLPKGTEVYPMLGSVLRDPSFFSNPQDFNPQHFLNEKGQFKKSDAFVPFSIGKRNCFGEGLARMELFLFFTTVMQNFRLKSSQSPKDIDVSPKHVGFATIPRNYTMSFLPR

CYP2C9 [4] = molecular target: T1, CYP2C9; assay: Inhibitory activity of 200 uM SPP100 on 222 Pmoles of cDNA-derived CYP2C9 enzyme in microsome prepared from human lymphoblastoid cell line; format: ADME, microsomes; parameters: conc 200 uM, interact cpd conc 6 uM; conditions: probe diclofenac
[5] = Mean excretion of radioactivity (0-24h) in urine and faeces following single oral dose of 500 mg.Kg-1 [14C] aliskiren hemifumarate in mouse; format: ADME, organism-based, TgRasH2, Urine/Feces; conditions: in vivo
[6] = Apparent terminal half-life (0-168h) of total radioactivity following single oral administration of [14C] aliskiren hemifumarate at 3 mg.Kg-1 level in marmoset; format: ADME, organism-based, Callithrix jacchus, Plasma; conditions: in vivo
[7] = Faecal elimination of aliskiren following single intravenous dose of [14C] aliskiren hemifumarate at 10 mg.Kg-1 level in mouse; format: ADME, organism-based, TgRasH2, Feces; conditions: in vivo
[8] = Mean excretion of radioactivity (72-96h) in urine and faeces following single intravenous dose of 10 mg.Kg-1 [14C] aliskiren hemifumarate in rat; format: ADME, organism-based, Albino HAN:WIST, Urine/Feces; conditions: in vivo
[9] = Tmax (0-168h) of total radioactivity following single intravenous administration of [14C] aliskiren hemifumarate at 1 mg.Kg-1 level in marmoset; format: ADME, organism-based, Callithrix jacchus, Plasma; conditions: in vivo
Cytochrome P450 2D6 = Cytochrome P450 2D6 (Homo sapiens, UniProt P10635); assay: Involvement of CYP2D6 in the metabolism of [14C] aliskiren hemifumarate based on studies with microsomes from baculovirus-infected insect cells expressing recombinant human CYP450s and studies with pooled human liver microsomes from 22 donors; format: ADME, Microsome
Chain of Cytochrome P450 2D6 (P10635 whole entry): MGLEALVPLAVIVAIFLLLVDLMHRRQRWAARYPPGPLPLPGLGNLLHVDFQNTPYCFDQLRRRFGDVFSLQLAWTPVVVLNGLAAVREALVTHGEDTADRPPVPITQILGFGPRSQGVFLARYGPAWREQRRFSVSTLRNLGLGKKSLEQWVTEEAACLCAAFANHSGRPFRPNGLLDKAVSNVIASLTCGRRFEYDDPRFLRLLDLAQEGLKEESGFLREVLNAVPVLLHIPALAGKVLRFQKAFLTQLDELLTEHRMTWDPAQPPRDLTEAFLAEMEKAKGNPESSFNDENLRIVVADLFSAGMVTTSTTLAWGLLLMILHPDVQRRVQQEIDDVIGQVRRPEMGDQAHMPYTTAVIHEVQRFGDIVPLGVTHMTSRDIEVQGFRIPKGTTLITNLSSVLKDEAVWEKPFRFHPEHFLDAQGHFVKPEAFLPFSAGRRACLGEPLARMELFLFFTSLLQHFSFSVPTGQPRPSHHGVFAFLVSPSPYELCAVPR

[10] = Excretion of radioactivity (24-48h) in faeces following single intravenous dose of 10 mg.Kg-1 [14C] aliskiren hemifumarate in rat; format: ADME, organism-based, Albino HAN:WIST, Feces; conditions: in vivo
[11] = Concentration of radioactivity in the liver following repeated oral administration of [14C] aliskiren hemifumarate at 100 mg.Kg-1 level studied at 2h after 10th dose in rat; format: ADME, organism-based, Albino HAN:WIST; conditions: in vivo
[12] = Excretion of radioactivity (24-48h) in faeces following single oral dose of 500 mg.Kg-1 [14C] aliskiren hemifumarate in mouse; format: ADME, organism-based, TgRasH2, Feces; conditions: in vivo
[13] = AUC (0-96 or 0-168h) of total radioactivity following single oral administration of [14C] aliskiren hemifumarate at 3 mg.Kg-1 level in marmoset; format: ADME, organism-based, Callithrix jacchus, Plasma; conditions: in vivo
[14] = Excretion (0-96h) of 14C-radioactivity in urine following single oral dose of 300 mg [14C]SPP100 studied in healthy men; format: ADME, organism-based; conditions: human, in vivo, at 300 mg
[15] = Tmax of [14C] aliskiren hemifumarate following single oral dose of [14C] aliskiren hemifumarate at 500 mg.Kg-1 level in mouse; format: ADME, organism-based, TgRasH2, Plasma; conditions: in vivo
[16] = Excretion of radioactivity (24-48h) in faeces following single intravenous dose of 10 mg.Kg-1 [14C] aliskiren hemifumarate in mouse; format: ADME, organism-based, TgRasH2, Feces; conditions: in vivo
[17] = Concentration of radioactivity in the kidney medulla following repeated oral administration of [14C] aliskiren hemifumarate at 100 mg.Kg-1 level studied at 2h after 10th dose in rat; format: ADME, organism-based, Albino HAN:WIST, Renal medulla; conditions: in vivo
[18] = Excretion of radioactivity (48-72h) in faeces following single oral dose of 500 mg.Kg-1 [14C] aliskiren hemifumarate in mouse; format: ADME, organism-based, TgRasH2, Feces; conditions: in vivo
[19] = AUCspec of aliskiren hemifumarate following 2 week oral dosing of aliskiren hemifumarate at 50 mg.Kg-1 level studied on day 14 in female Callithrix jacchus; format: ADME, organism-based, Plasma; conditions: marmoset, in vivo, 336 h
[20] = Cmaxspec of aliskiren hemifumarate following 2 week oral dosing of aliskiren hemifumarate at 50 mg.Kg-1 level studied on day 1 in male Callithrix jacchus; format: ADME, organism-based, Plasma; conditions: marmoset, in vivo, 336 h
[21] = Absolute oral bioavailability of aliskiren hemifumarate after single oral administration of [14C] aliskiren hemifumarate in mouse; format: ADME, organism-based, TgRasH2, Plasma; conditions: in vivo, 500 mg/kg
[22] = AUC (0-24h)/dose of aliskiren hemifumarate following 4 week oral dietary dosing of aliskiren hemifumarate at 2000 mg.Kg-1 level in female mouse; format: ADME, organism-based, CB6F1-TGrasH2, Plasma; conditions: in vivo
[23] = Cmax of unlabeled aliskiren hemifumarate following single oral dose of aliskiren hemifumarate at 500 mg.Kg-1 level in mouse; format: ADME, organism-based; conditions: TgRasH2, mouse, plasma
[24] = Effect of 4 week oral dietary dosing of aliskiren hemifumarate at 2000 mg.Kg-1 level on spermatogenesis in male mouse; format: toxicity, organism-based, CB6F1-TGrasH2, Testis; conditions: in vivo, 672 h
[25] = AUCspec of aliskiren hemifumarate following 2 week oral dosing of aliskiren hemifumarate at 100 mg.Kg-1 level studied on day 14 in female Callithrix jacchus; format: ADME, organism-based, Plasma; conditions: marmoset, in vivo, 336 h
[26] = Cmaxspec of aliskiren hemifumarate following 2 week oral dosing of aliskiren hemifumarate at 10 mg.Kg-1 level studied on day 1 in male Callithrix jacchus; format: ADME, organism-based, Plasma; conditions: marmoset, in vivo, 336 h
hERG (KCNH2) = hERG (KCNH2) (Homo sapiens, UniProt Q12809); assay: Effects of 10 uM aliskiren hemifumarate on current through cloned hERG channel expressed in human embryonic kidney cell; format: cell-based; parameters: conc 10 uM, dose level Low; conditions: HEK293 cells that express cloned hERG channel, read-out: Inhibitory activity
Chain of hERG (KCNH2) (Q12809 whole entry): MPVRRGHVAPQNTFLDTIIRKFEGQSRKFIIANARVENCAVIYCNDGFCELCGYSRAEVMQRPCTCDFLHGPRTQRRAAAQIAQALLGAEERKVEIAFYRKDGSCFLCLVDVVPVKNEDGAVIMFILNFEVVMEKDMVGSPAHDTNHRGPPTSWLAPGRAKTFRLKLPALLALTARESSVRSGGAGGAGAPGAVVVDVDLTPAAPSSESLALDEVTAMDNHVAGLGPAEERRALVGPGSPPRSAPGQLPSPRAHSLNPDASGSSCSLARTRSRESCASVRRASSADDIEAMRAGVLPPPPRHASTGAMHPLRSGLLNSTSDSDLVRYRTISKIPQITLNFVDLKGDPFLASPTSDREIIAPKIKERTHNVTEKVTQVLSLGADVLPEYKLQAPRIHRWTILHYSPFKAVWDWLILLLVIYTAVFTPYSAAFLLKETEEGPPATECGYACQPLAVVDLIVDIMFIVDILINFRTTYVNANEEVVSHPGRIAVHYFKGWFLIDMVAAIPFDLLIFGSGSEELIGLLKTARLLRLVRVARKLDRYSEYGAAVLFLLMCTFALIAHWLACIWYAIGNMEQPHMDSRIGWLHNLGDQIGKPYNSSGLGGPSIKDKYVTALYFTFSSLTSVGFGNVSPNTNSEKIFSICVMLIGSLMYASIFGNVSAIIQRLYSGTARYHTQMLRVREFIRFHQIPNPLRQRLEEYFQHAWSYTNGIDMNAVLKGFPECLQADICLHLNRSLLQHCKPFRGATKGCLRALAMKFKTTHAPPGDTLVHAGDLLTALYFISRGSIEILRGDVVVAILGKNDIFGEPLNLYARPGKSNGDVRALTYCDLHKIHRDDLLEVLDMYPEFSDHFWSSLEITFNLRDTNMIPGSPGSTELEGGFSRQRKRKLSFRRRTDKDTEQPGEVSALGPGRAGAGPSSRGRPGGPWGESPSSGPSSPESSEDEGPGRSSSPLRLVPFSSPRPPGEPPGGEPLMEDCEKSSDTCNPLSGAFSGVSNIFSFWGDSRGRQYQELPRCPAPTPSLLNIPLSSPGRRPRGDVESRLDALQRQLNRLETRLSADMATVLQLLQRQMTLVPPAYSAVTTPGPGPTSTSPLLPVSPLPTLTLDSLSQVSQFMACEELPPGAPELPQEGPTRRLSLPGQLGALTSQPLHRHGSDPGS

[27] = Cmax of aliskiren hemifumarate following 4 week oral dietary dosing of aliskiren hemifumarate at 1000 mg.Kg-1 level in male mouse; format: ADME, organism-based; conditions: CB6F1-TGrasH2, mouse, in vivo
[28] = Tmax of aliskiren hemifumarate following 4 week oral dietary dosing of aliskiren hemifumarate at 500 mg.Kg-1 level in male mouse; format: ADME, organism-based; conditions: CB6F1-TGrasH2, mouse, in vivo
[29] = Cmin of aliskiren hemifumarate following repeated oral administration of [14C] aliskiren hemifumarate at 100 mg.Kg-1 level studied at steady state during a dosing interval in rat; format: ADME, organism-based, Albino HAN:WIST; conditions: in vivo
[30] = Tmax of aliskiren hemifumarate following 2 week oral dosing of aliskiren hemifumarate at 50 mg.Kg-1 level studied on day 14 in male Callithrix jacchus; format: ADME, organism-based; conditions: marmoset, plasma

T1 sequence (P11712 whole entry): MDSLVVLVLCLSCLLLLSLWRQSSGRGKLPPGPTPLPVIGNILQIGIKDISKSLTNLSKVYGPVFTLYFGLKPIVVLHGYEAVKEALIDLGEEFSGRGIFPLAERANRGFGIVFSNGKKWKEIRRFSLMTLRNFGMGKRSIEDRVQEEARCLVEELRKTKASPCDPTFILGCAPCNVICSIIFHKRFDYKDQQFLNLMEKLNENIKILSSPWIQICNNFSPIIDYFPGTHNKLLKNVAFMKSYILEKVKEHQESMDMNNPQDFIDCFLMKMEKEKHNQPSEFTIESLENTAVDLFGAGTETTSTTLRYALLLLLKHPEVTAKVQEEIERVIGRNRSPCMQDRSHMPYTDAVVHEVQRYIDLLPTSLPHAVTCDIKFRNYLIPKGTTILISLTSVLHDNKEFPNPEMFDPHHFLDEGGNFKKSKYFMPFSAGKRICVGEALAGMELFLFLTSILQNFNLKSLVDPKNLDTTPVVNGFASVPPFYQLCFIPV

COCCCOc1cc(C[C@@H](C[C@H](N)[C@@H](O)C[C@H](C(=O)NCC(C)(C)C(N)=O)C(C)C)C(C)C)ccc1OC
inhibition at 200 µM (CYP2C9 [1]): 23% | AUC [2]: 868 ng·h/mL | CL/F [3]: 5350 mL/min | inhibition at 200 µM (CYP2A6): 2.6% | inhibition at 200 µM (CYP2C9 [4]): 14.9%

COCCCOc1cc(C[C@@H](C[C@H](N)[C@@H](O)C[C@H](C(=O)NCC([14CH3])([14CH3])C(N)=O)C(C)C)C(C)C)ccc1OC.O=C(O)/C=C/C(=O)O
Radiolabel recovery [5]: 69.96% | t1/2 [6]: 45.5 h | Radiolabel recovery [7]: OUTCOME = Observed, VALUE = Elimination of aliskiren occurred mainly via the biliary or faecal route | Radiolabel recovery [8]: 2.24% | Tmax [9]: 4.98 min | Activity (Cytochrome P450 2D6): OUTCOME = Observed, VALUE = CYP2D6 contributed to a minor extent on metabolism of aliskiren | Radiolabel recovery [10]: 28.2% | Radiolabel recovery [11]: OUTCOME = Detected | Radiolabel recovery [12]: 1.82% | AUC [13]: 4.84 µM·h | Radiolabel recovery [14]: 0.57% | Tmax [15]: 1 h | Radiolabel recovery [16]: 5.69% | Radiolabel recovery [17]: OUTCOME = Detected | Radiolabel recovery [18]: 0.16%

COCCCOc1cc(C[C@@H](C[C@H](N)[C@@H](O)C[C@H](C(=O)NCC(C)(C)C(N)=O)C(C)C)C(C)C)ccc1OC.COCCCOc1cc(C[C@@H](C[C@H](N)[C@@H](O)C[C@H](C(=O)NCC(C)(C)C(N)=O)C(C)C)C(C)C)ccc1OC.O=C(O)/C=C/C(=O)O [ALISKIREN FUMARATE]
AUC normalised [19]: 2.18 ((ug.h.ml-1)/(mg/kg) | Cmax normalised [20]: 0.126 (ug/ml)/(mg/kg) | F [21]: 1.5% | AUC normalised [22]: 5.88 ((ng/mL).hours)/(mg/kg/day) | Cmax [23]: 1450 nM | Change in spermatogenesis [24]: OUTCOME = No abnormalities. No animals died during the study. | AUC normalised [25]: 1.42 ((ug.h.ml-1)/(mg/kg) | Cmax normalised [26]: 0.396 (ug/ml)/(mg/kg) | inhibition at 10 µM (hERG (KCNH2)): 1.4% | Cmax [27]: 879 ng/mL | Tmax [28]: 3 h | Cmin(ss) [29]: 4.54 nM | Tmax [30]: 2 h
